Entries after “also recorded” stand apart in the source; their conditions may differ.
Assays:
ARPE-19 cells = assay: Hoechst staining, TNFα/H2O2 oxidative stress-induced apoptosis; type: cell-based, human; conditions: 50 nM added with TNFα 10 ng/ml plus H2O2 (400-800 μM); 14 h
Description: ARPE-19 cell culture and chemicals: ARPE-19 cells (L. M. Hjelmeland, ATCC # CRL-2302) were grown and maintained in DMEM-F12 medium supplemented with 10% FBS and incubated at 37° C. with a constant supply of 5% CO2. ARPE-19 cells are spontaneously transformed human retinal pigment epithelial cells that conserve cellular biological and functional properties. All chemicals were purchased from Sigma Chemical Co. (St. Louis, Mo.) unless otherwise indicated.
Hoechst staining: ARPE-19 cells were loaded with 2 μM Hoechst dissolved in a Locke's solution (Promega, Madison, Wis.) and incubated one h at 37° C. before imaging. Cells were then washed once with PBS and viewed using a Nikon DIAPHOT 200 microscope under UV fluorescence. Images were recorded by a Hamamatsu Color Chilled 3CCD camera and Photoshop 5.0 software, as described in Mukherjee, P. K., DeCoster, M. A., Campbell, F. Z., Davis, R. J. & Bazan, N. G. (1999) J. Biol. Chem. 274:6493-6498.
Several experimental conditions that result in reproducible oxidative-stress-induced apoptosis in ARPE-19 cells were tested. One condition chosen was the combination of TNFα with H2O2, both in relatively low concentrations. Typically 10 ng/ml of TNFα and 400-800 μM H2O2 led to marked increase in Hoechst-positive cells (Data not shown). Neither TNFα nor H2O2 alone triggered a significant effect under these conditions. (Data not shown).
Serum starvation made ARPE-19 cells more sensitive to oxidative stress-triggered apoptosis induced by TNFα/H2O2. Cells were grown in culture for 72 h in the presence of BSA (3.35 μM) with or without DHA (6.7 μM). Endogenous NPD1 formation was enhanced by BSA-DHA (FIG. 12A).
In the next experiment, confluent cells were starved for 8 h, then TNFα/H2O2 was added and incubated for 14 h before staining with Hoechst reagent. NPD1 (50 nM) was added at the time of adding TNFα/H2O2. […] When the TNFα concentration (10 ng/ml) was maintained and H2O2 concentration was decreased from 800 to 400 μM, fewer Hoechst-positive cells were seen. […] (Data not shown).

[1] = system: Aβ40 and Aβ42 peptide secretion; assay: Aβ40 and Aβ42 peptide secretion by aging HN cells (Western immunoblot of medium); type: cell-based, human; conditions: aging HN cells cultured up to 8 weeks; DHA 50 nM or IL-1β 10 ng/ml continuously in medium
Description: Human Neural (HN) Cells. HN cells in primary culture, starting as primary spheroids (CC-2599, Clonetics, Walkersville, Md.), were grown in neural progenitor maintenance medium (NPMM) containing human epidermal and fibroblast growth factor, gentamicin/amphotericin (G/A1000), and neural survival factor-1 for up to 8 weeks. […] (Data not shown).
Additions of IL-1β and DHA to the Growth Medium. After 1 week of HN cell growth, IL-1β (10 ng/ml) or DHA (50 nM) was added to the NPMM culture medium.
To determine the effect of cytokine-mediated stress on aging HN cells, AP peptide release was assayed in the continuous presence in the culture medium of IL-1β, an inducer of reactive oxygen species (ROS) generation and oxidative stress as described in Lynch, A. M., Moore, M., Craig, S., Lonergan, P. E., Martin, D. S., Lynch, M. A. (2003) J. Biol. Chem., 278: 51075-51084; and Kaur, J., Dhaunsi, G. S., Turner, R. B. (2004) Med. Princ. Pract., 13: 26-29. Parallel experiments in aging HN cells were performed in the presence of control neuro-progenitor maintenance medium (NPMM) and the continuous presence of NPMM+DHA.

[2] = system: polymorphonuclear leukocyte infiltration (myeloperoxidase activity); assay: Myeloperoxidase (MPO) activity assay in hippocampus and neocortex after MCA-O and reperfusion; type: in vivo, mouse; conditions: 1 h MCA-O, 48 h reperfusion
Description: Middle Cerebral Artery Occlusion (MCA-O) and reperfusion. Experimental protocols were reviewed and approved by the Institutional Animal Care and Use Committee of Louisiana State University Health Sciences Center, New Orleans. Mice (20-25 g body wt) were induced with 2% isoflurane in a mixture of 70% nitrous oxide and 30% oxygen. Anesthesia was maintained with 1% isoflurane. Temperature was maintained at 36.5-37.5° C. using a Harvard homeothermic blanket. P 10 polyethylene catheters were placed in the femoral artery and vein, and the blood pressure was monitored. Arterial blood was analyzed for PO2, PCO2, and pH after 1 h of ischemia and 30 min after the onset of reperfusion. The common carotid and external carotid arteries were temporarily ligated with a retracting suture, and the external carotid artery was dissected just proximal to its bifurcation. The occluding filament was introduced from the external carotid artery and advanced to the internal carotid artery. The AVM micro clip was removed. The filament was advanced so that the blunted tip lay in the anterior cerebral artery and the side of the filament occluded the origin of the middle cerebral artery (MCA). The stump of the external carotid artery was ligated, and tension on the retracting suture to the common carotid artery was gently released, restoring blood flow to the carotid system.
Occlusion of the middle cerebral artery (MCA-O) was maintained for 1 h; reperfusion was then established by delicate retrieval of the occluding suture from the arterial lumen, restoring blood flow to the region of the MCA. The mice were then killed, and the hippocampus and brain cortex rapidly dissected and frozen. Samples were kept at −80° C. until analysis. In some experiments, aspirin (7.5 mg/kg) was administered by gavage 15 min before MCA-O.
Polymorphonuclear leukocyte infiltration measurement by the myeloperoxidase (MPO) assay. Inhibition of leukocyte infiltration by 10,17S-docosatriene (NPD1) or docosahexaenoic acid (DHA) was measured in mouse hippocampus and neocortex after 1 h of middle cerebral artery occlusion (MCA-O) and 48 h of reperfusion. Lipids were delivered for each experiment by perfusion (250 nl/h) through Alzet minipumps implanted into the third ventricle. Hippocampus and neocortex from the ipsilateral (MCA-O-reperfusion) and contralateral sides were rapidly dissected. Brain samples were assayed for myeloperoxidase activity as described in Huang, J., Choudhri, T. F., Winfree, C. J., McTaggart, R. A., Kiss, S., Mocco, J., Kim, L. J., Protopsaltis, T. S., Zhang, Y., Pinsky, D. J., and Connolly Jr., E. S. (2000) Stroke 31, 3047-3053. Briefly, brain tissues were homogenized in 10 mM phosphate buffer (pH 7.4), then frozen and thawed with liquid N2 followed by sonication. Samples were precipitated at 10,000×g for 10 min, then aliquots of supernatants were added to 10 mM phosphate buffer (pH 6.0) and a substrate solution containing o-dianisidine (Sigma; St. Louis, Mo.) and 0.025% hydrogen peroxide, and finally incubated at 37° C. for 45 min. Spectrophotometric detection was obtained at 460 nm.

COX-2 expression = assay: COX-2 mRNA abundance in ipsilateral hippocampus after MCA-O; type: in vivo, mouse; conditions: 1 h MCA-O, 2 h reperfusion, infused into third ventricle (NPD1 0.16 μg/ml)
Description: COX-2 RNA abundance in hippocampus and HN cells. Abundance of human-specific COX-1 and COX-2 RNA message was assayed using RT-PCR as described in Bazan, N. G., and Lukiw, W. J. (2002) J. Biol. Chem. 277, 30359-30367.
To determine COX-1 and COX-2 expression, mRNA abundance in the ipsilateral hippocampus was measured. […] A 3-fold increase of COX-2 was seen due to MCA-O reperfusion (FIG. 7C). The infusion of the precursor DHA as well as its product 10,17S-docosatriene (NPD1) inhibited COX-2 expression by 14% and 52%, respectively.

[3] = system: NF-κB-DNA binding activity; assay: EMSA of NF-κB in hippocampus after MCA-O; type: in vivo, mouse; conditions: ipsilateral hippocampus; 1 h MCA-O, 2 h reperfusion; infused into third ventricle 3 h at 0.25 μl/h (NPD1 0.16 μg/ml)
Description: Electrophoretic mobility-shift assay (EMSA) of human AP1, HIF-1α, NF-κBp50/p65, and STAT-1α. Nuclear protein extracts (NPXTs) were prepared from one to three 3.5 cm-diameter wells of HN cells and quantitated. NPXTs (5 μg) derived from HN cells were incubated with[γ-^32P]-ATP (˜3000 Ci/mmol)-end-labeled AP1, HIF-1α, NF-κκBp50/p65, or STAT-1α consensus and mutant oligonucleotides in 5-μl volumes, reacted for 30 min on ice, analyzed on 5% or 10% acrylamide/90 mM Tris-borate pH 8.4, 1 mM EDTA (TBE) gels, dried onto 2-mm Whatman filter paper at 80° C. for 2 h, and phosphorimaged using a Typhoon Variable Mode Imager (Amersham Pharmacia Biotech, Piscataway, N.J. ).
FIGS. 7A, 7B, and 7C show mouse hippocampus after 1 h MCA-O was followed by 2 h reperfusion, where either vehicle, DHA, or 10,17S-docosatriene (NPD1) (0.16 μg/ml) was infused into the third ventricle for 3 h at 0.25 μl/h. […] NF-κB was increased over two fold in the ipsilateral hippocampus after MCA-O, and the infusion of either DHA or 10,17S-docosatriene (NPD1) inhibited ischemia-reperfusion-induced NF-κB activation by 28% and 48%, respectively (FIG. 7A).

Bcl-xL gene expression = assay: HGU133 GeneChip DNA array in HN cells: Bcl-xL; type: cell-based, human; conditions: Aβ42 25 μM, DHA 50 nM or NPD1 50 nM, 18 h, nsc = no significant change
Bcl-2 gene expression = assay: HGU133 GeneChip DNA array in HN cells: Bcl-2; type: cell-based, human; conditions: Aβ42 25 μM, DHA 50 nM or NPD1 50 nM, 18 h, nsc = no significant change
[4] = system: prostaglandin E2 (PGE2) formation; assay: ELISA of PGE2 in hippocampus during reperfusion after MCA-O; type: in vivo, mouse; conditions: aspirin 7.52 mg/kg by gavage 15 min before MCA-O; C57BL/6 mice
Description: To confirm that the aspirin dose administered by gavage did reach the brain, the time course for prostaglandin E2, LTB4, and lipoxin A4 production was determined in the hippocampus in parallel assays. The time course of prostaglandin E2, leukotriene B4, and lipoxin A4 formation was followed in mouse hippocampus after 1-h middle cerebral artery occlusion (MCA-O), followed by reperfusion with (FIG. 2B) or without (FIG. 2A) aspirin treatment. Detection of the compounds was performed by sensitive and specific ELISA, in tandem, for prostaglandin E2 (PGE2), leukotriene B4 (LTB4), and lipoxins (LXA4) (Neogen, Lexington, Ky.). […] Maximal LTB4 was generated in aspirin-treated hippocampus by 8 h, as was the case with lipoxin A4, which also peaked within 8 h.

[5] = system: polymorphonuclear leukocyte infiltration; assay: Zymosan-induced peritonitis, leukocyte infiltration; type: in vivo, mouse; conditions: zymosan-induced peritonitis, FVB mice; i.v. bolus 1.5 min before Zymosan A; lavage at 2 h
Description: The inhibition of leukocyte infiltration in zymosan-induced peritonitis by 4,17S-diHDHA and 10,17S-docosatriene (NPD1) was tested. […] Peritonitis was induced in 6- to 8-week-old male FVB mice (Charles River Laboratories) by peritoneal injection of 1 mg Zymosan A. The compounds 4,17S- and 10,17S-diHDHA were injected by intravenous bolus injection, 1.5 minutes before Zymosan A treatment. Two hours after induction of peritonitis, rapid peritoneal lavages were collected, and cell type enumeration was performed.

[6] = 1 μg or 3 μg over 48 h (dose of the value not stated)

With CCCCC[C@H](O)/C=C/[C@H]1[C@H](O)CC(=O)[C@@H]1C/C=C\CCCC(=O)O [PGE2, prostaglandin E2] the “inhibition of oxidative stress (TNFα/H2O2)-induced Hoechst-positive cells / apoptosis” value (ARPE-19 cells) was “neither PGE2, LTB4, nor 20-OH-LTB4 (each at 50 nM) was able to elicit the degree of inhibition”.

“IL-1β: human recombinant interleukin 1-beta, cytokine stressor” was tested, and the “effect on Aβ peptide (Aβ40 and Aβ42) secretion” value [1] was “enhanced”.

In the case of CC/C=C\C/C=C\C/C=C\C/C=C\C/C=C\C/C=C\CCC(=O)O [DHA, docosahexaenoic acid], the “inhibition of myeloperoxidase activity, hippocampus” value ([2]; 2 μg over 48 h perfusion) is reported as 60%, the “inhibition of myeloperoxidase activity, neocortex” value ([2]; 2 μg over 48 h perfusion) is reported as “no inhibition” and the “inhibition of myeloperoxidase activity, hippocampus” value ([2]; 20 μg over 48 h perfusion) is reported as 72%. The “inhibition of myeloperoxidase activity, neocortex” value ([2]; 20 μg over 48 h perfusion) was 40%, the “inhibition of myeloperoxidase activity, hippocampus” value ([2]; 200 μg over 48 h perfusion) was 82% and the “inhibition of myeloperoxidase activity, neocortex” value ([2]; 200 μg over 48 h perfusion) was 73%. For the same compound, the “inhibition of COX-2 expression (mRNA)” value (COX-2 expression) was 14%, the “inhibition of ischemia-reperfusion-induced NF-κB activation” value [3] was 28% and the “Bcl-xL gene expression, fold change over untreated controls” value (Bcl-xL gene expression) was “+1.5 fold”. The “Bcl-2 gene expression, fold change over untreated controls” value (Bcl-2 gene expression) was “+2.5 fold”.

In the case of “10,17S-docosatriene methyl ester [10,17S-docosatriene (NPD1) methyl ester]”, the “inhibition of ipsilateral myeloperoxidase activity, hippocampus” value [2, 6] is reported as 49% and the “inhibition of ipsilateral myeloperoxidase activity, neocortex” value [2, 6] is reported as 97%.

With CCCCC/C=C\C[C@@H](O)/C=C/C=C/C=C\[C@@H](O)CCCC(=O)O [LTB4, leukotriene B4] the “inhibition of oxidative stress (TNFα/H2O2)-induced Hoechst-positive cells / apoptosis” value (ARPE-19 cells) was “partially inhibitory”.

With CCCCC/C=C\C/C=C\C/C=C\C/C=C\CCCC(=O)O [Arachidonic acid, arachidonic acid] the “inhibition of oxidative stress (TNFα/H2O2)-induced Hoechst-positive cells / apoptosis” value (ARPE-19 cells) was “partially effective”.

For CC(=O)Oc1ccccc1C(=O)O [aspirin], the “effect on accumulation of PGE2 in hippocampus within 8 h of reperfusion” value [4] was “inhibited”.

For CCC=CCC(O)C=CC=CCC=CCC=CC=CC(O)CCC(=O)O (stereo not drawn) [4,17S-diHDHA], the “inhibition of polymorphonuclear leukocyte infiltration” value [5] was “dose-dependent inhibition; also recorded: some inhibition”.

With O=C(O)CCC[C@H](O)\C=C/C=C/C=C/[C@H](O)C/C=C\CCCCCO [20-OH-LTB4] the “inhibition of oxidative stress (TNFα/H2O2)-induced Hoechst-positive cells / apoptosis” value (ARPE-19 cells) was “neither PGE2, LTB4, nor 20-OH-LTB4 (each at 50 nM) was able to elicit the degree of inhibition”.

Source: patent publication US20050075398A1, “Neuroprotectin D1 protects against cellular apoptosis, stroke damage, alzheimer's disease and retinal diseases” (priority 2003, published 2005)
